Patent US12263171B2, “7-, 8-, and 10-substituted amino triazolo quinazoline derivatives as adenosine receptor antagonists, pharmaceutical compositions and their use” (Merck Sharp & Dohme LLC, priority 2018, dated 2025)

Assays:
[1] = target: human A2b adenosine receptor (Homo sapiens (Human), UniProt P29275); assay: A2B antagonism in cAMP cell-based assay (LANCE cAMP, HEK293 cells, 600 nM adenosine); details: for IC50: values marked *: cAMP cell-based assay
[2] = target: human A2a adenosine receptor (Homo sapiens (Human), UniProt P29274); assay: A2A antagonism in cAMP cell-based assay (LANCE cAMP, HEK293 cells, 300 nM adenosine); details: values marked *: cAMP cell-based assay
Chain of human A2a adenosine receptor (P29274 whole entry): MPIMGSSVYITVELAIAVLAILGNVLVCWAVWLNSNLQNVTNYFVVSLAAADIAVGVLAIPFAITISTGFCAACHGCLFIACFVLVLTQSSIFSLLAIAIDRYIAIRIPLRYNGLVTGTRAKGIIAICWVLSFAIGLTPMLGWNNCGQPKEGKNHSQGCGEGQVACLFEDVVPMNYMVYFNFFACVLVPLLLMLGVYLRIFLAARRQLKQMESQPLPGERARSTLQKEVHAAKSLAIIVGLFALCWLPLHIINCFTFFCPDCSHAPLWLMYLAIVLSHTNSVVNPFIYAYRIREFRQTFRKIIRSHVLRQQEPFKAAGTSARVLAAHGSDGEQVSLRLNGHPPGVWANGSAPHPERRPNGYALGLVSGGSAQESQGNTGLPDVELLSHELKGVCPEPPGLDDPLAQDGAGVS
Description: Measurement of A2A and A2B Antagonism in cAMP Cell-Based Assay
All subsequent liquid additions were performed using a multichannel pipettor. […] After this time 5 μL of either 300 nM or 600 nM adenosine (Sigma Cat. No. A9251) for A2A and A2B respectively was added and incubated for 30 minutes at 37° C. and 5% CO2 in a humidified environment. At this time detection mix was prepared by combining the LANCE Eu-W8044 labeled streptavidin and. Biotin-cAMP in detection buffer according to the manufacturers protocol. […] Curve fitting of the percent effect data versus the log of compound concentration used a 4-parameter concentration response curve fitting algorithm to calculate IC50 values.

Chain of human A2b adenosine receptor (P29275 whole entry): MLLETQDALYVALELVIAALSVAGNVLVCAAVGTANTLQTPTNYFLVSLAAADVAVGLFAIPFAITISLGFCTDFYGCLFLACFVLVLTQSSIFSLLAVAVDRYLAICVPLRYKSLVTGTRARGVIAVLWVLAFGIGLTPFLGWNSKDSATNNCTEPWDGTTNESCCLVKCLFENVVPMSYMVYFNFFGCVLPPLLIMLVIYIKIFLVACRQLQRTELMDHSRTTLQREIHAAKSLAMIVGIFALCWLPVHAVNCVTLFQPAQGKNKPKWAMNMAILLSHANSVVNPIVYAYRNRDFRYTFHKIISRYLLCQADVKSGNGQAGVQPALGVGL

Q: `COc1ccc2c(c1)nc(N)n1nc([C@H]3C[C@@H](C)CN(c4cn([C@H](C)[C@@H](C)O)nc4C)C3)nc21` [Example 219C, (2R,3R)-3-(4-((3S,5R)-3-(5-amino-8-methoxy-[1,2,4]triazolo[1,5-c]quinazolin-2-yl)-5-methylpiperidin-1-yl)-3-methyl-1H-pyrazol-1-yl)butan-2-ol] was tested. Which IC50 [1] did it give?
A: 5650 nM

Q: And the IC50 [2]?
A: 38.6 nM

Q: With `COc1cccc2c1nc(N)n1nc(C3CCC(C)N(c4cnn(C(C)(C)CO)c4)C3)nc21` (single isomer, unassigned) [Example 146C] as the compound, how does the IC50 [1] read?
A: 2200 nM

Q: And the IC50 [2]?
A: 101 nM

Q: Which results are given for `COc1cccc2c1nc(N)n1nc([C@@H]3CCCN(c4ccc(C(F)(F)F)cn4)C3)nc21` [Example 118, (R)-7-methoxy-2-(1-(5-(trifluoromethyl)pyridin-2-yl)piperidin-3-yl)-[1,2,4]triazolo[1,5-c]quinazolin-5-amine]?
A: IC50 [1]: 105 nM; IC50 [2]: 10.6 nM

Q: `COc1ccc2c(c1)nc(N)n1nc([C@@H]3C[C@H](C)CN(c4cn([C@@H](C)[C@H](C)O)nc4C)C3)nc21` [Example 219D, (2S,3S)-3-(4-((3R,5S)-3-(5-amino-8-methoxy-[1,2,4]triazolo[1,5-c]quinazolin-2-yl)-5-methylpiperidin-1-yl)-3-methyl-1H-pyrazol-1-yl)butan-2-ol] was tested. Which “*A2B cAMP % inh. @ 10000 nM” value ([1]; @ 10000 nM, marked *) did it give?
A: 33% inh. @ 10000 nM*

Q: What about the IC50 [2] of the same compound?
A: 44.3 nM

Q: What does the source list for `COc1ccc2c(c1)nc(N)n1nc([C@H]3C[C@H](C)CN(c4cnn(C(C)(C)CO)c4)C3)nc21` [Example 222B, 2-(4-((3S,5S)-3-(5-amino-8-methoxy-[1,2,4]triazolo[1,5-c]quinazolin-2-yl)-5-methylpiperidin-1-yl)-1H-pyrazol-1-yl)-2-methylpropan-1-ol]?
A: IC50 [1]: 1720 nM; IC50 [2]: 63.8 nM
